# In patent US20200068890A1 (Person to Whom the Inventor is Obligated to Assign, priority 2017, published 2020):
# Test system: T1, A. thaliana DHDPS
# T1 construct: AtDHDPS|10|0.00008; no borders, domain or tags given
# Assay: DHDPS-DHDPR coupled assay, dose response inhibitor assay
# Assay type: biochemical, Arabidopsis thaliana
# Method: DHDPS enzyme activity was determined using the coupled assay in a Cary 4000 UV/Vis spectrophotometer at 340 nm in 1 cm acrylic cuvettes. A master mix was prepared for each reaction as per Table 1. Reaction mixtures containing enzymes, pyruvate, buffer and NADPH were incubated at 30° C. for 12 mins before the addition of ASA to initiate the reaction. The oxidation of NADPH to NADP^+ was then monitored at 340 nm at 30° C. as a function of time. The initial rate (ΔA340·min^−1) was calculated from the slope of the linear portion of the A340 versus time profile. All experiments were carried out in triplicate. The enzyme kinetic parameters, including KM values, were determined using the Michaelis-Menten equation (Equation 1). Unless otherwise stated, all kinetic data were fitted using the built-in equations in GraphPad Prism.
# To determine/C50 values for the inhibitors, A. thaliana DHDPS enzyme activity was measured using the coupled assay (detailed above) in the presence of increasing concentrations of inhibitor. The initial rate was then plotted as a function of the log 10 of the inhibitor concentration and the/C50 determined according to Equation 2.
row,IC50 [µM],SMILES
1,222,"COc1ccc(/C=C2\NC(=S)N(CC(=O)O)C2=O)cc1 [Compound 44, (Z)-2-(4-(4-Methoxybenzylidene)-5-oxo-2-thioxoimidazolidin-1-yl)acetic Acid]"
2,79.7,"O=C(O)CN1C(=O)S/C(=C\c2ccccc2O)C1=O [Compound 14, (Z)-2-(5-(2-Hydroxybenzylidene)-2,4-dioxothiazolidin-3-yl)acetic Acid]"
3,152,"O=C(O)CN1C(=O)S/C(=C\c2cc([N+](=O)[O-])ccc2O)C1=O [Compound 15, (Z)-2-(5-(2-Hydroxy-5-nitrobenzylidene)-2,4-dioxothiazolidin-3-yl)acetic Acid]"
4,97.8,"O=C(O)CN1C(=O)S/C(=C\c2ccc(OC(F)(F)F)cc2)C1=O [Compound 27, (Z)-2-(2,4-Dioxo-5-(4-(trifluoromethoxy)benzylidene)thiazolidin-3-yl)acetic Acid]"
5,71.6,"O=C(O)CN1C(=O)S/C(=C\c2cccs2)C1=O [Compound 30, (Z)-2-(2,4-Dioxo-5-(thiophen-2-ylmethylene)thiazolidin-3-yl)acetic Acid]"
6,110,"COc1cccc(/C=C2\SC(=O)N(CC(=O)O)C2=O)c1 [Compound 4, (Z)-2-(5-(3-Methoxybenzylidene)-2,4-dioxothiazolidin-3-yl)acetic Acid]"
7,540,"COc1ccc(/C=C2\SC(=S)N(CC(=O)O)C2=O)cc1 [Compound 43, (Z)-2-(5-(4-Methoxybenzylidene)-4-oxo-2-thioxothiazolidin-3-yl)acetic Acid]"
8,46,"COc1ccc(/C=C2\SC(=O)N(CC(=O)O)C2=O)cn1 [Compound 37, (Z)-2-(5-((6-Methoxypyridin-3-yl)methylene)-2,4-dioxothiazolidin-3-yl)acetic Acid]"
9,127,"COc1cccc(/C=C2\SC(=O)N(CC(=O)O)C2=O)c1O [Compound 16, (Z)-2-(5-(2-Hydroxy-3-methoxybenzylidene)-2,4-dioxothiazolidin-3-yl)acetic Acid]"
10,94,"O=C(O)CN1C(=O)S/C(=C\c2c[nH]cn2)C1=O [Compound 32, (Z)-2-(5-((1H-Imidazol-4-yl)methylene)-2,4-dioxothiazolidin-3-yl)acetic Acid]"
11,162,"O=C(O)CN1C(=O)S/C(=C\c2ccc(O)cc2O)C1=O [Compound 21, 2-(5-(2,4-Dihydroxybenzylidene)-2,4-dioxothiazolidin-3-yl)acetic Acid]"
12,156,"COc1ccc(/C=C2\SC(=N)NC2=O)cc1 [Compound 48, (Z)-2-Imino-5-(4-methoxybenzylidene)thiazolidin-4-one]"
13,125,"O=C1NC(=O)/C(=C/c2ccccc2O)S1 [Compound 19, (Z)-5-(2-Hydroxybenzylidene)thiazolidine-2,4-dione]"
14,316,"O=C(O)CN1C(=O)S/C(=C\c2ccc(O)c(Cl)c2)C1=O [Compound 13, (Z)-2-(5-(3-Chloro-4-hydroxybenzylidene)-2,4-dioxothiazolidin-3-yl)acetic Acid]"
15,89.1,"COc1ccc(/C=C2\SC(=O)N(Cc3nnn[nH]3)C2=O)cc1 [Compound 49, (Z)-3-((1H-Tetrazol-5-yl)methyl)-5-(4-methoxybenzylidene)thiazolidine-2,4-dione]"
16,74,"O=C(O)CN1C(=O)S/C(=C\c2ccc(Br)cc2)C1=O [Compound 9, (Z)-2-(5-(4-Bromobenzylidene)-2,4-dioxothiazolidin-3-yl)acetic Acid]"
17,66.8,"COc1ccc(/C=C2\SC(=O)N(CCCC(=O)O)C2=O)cc1 [Compound 51, (Z)-4-(5-(4-Methoxybenzylidene)-2,4-dioxothiazolidin-3-yl)butanoic Acid]"
18,79.6,"N#Cc1ccc(/C=C2\SC(=O)N(CC(=O)O)C2=O)cc1 [Compound 24, (Z)-2-(5-(4-Cyanobenzylidene)-2,4-dioxothiazolidin-3-yl)acetic Acid]"

row,IC50 [µM],SMILES
1,138,"O=C(O)CN1C(=O)S/C(=C\c2cccnc2)C1=O [Compound 35, (Z)-2-(2,4-Dioxo-5-(pyridin-3-ylmethylene)thiazolidin-3-yl)acetic Acid]"
2,71.6,"CCOc1ccc(/C=C2\SC(=O)N(CC(=O)O)C2=O)cc1 [Compound 26, (Z)-2-(5-(4-Ethoxybenzylidene)-2,4-dioxothiazolidin-3-yl)acetic Acid]"
3,70.8,"COc1ccc(/C=C2\SC(=O)NC2=O)cc1 [Compound 45, (Z)-5-(4-Methoxybenzylidene)thiazolidine-2,4-dione]"
4,68.4,"CC(=O)Nc1ccc(/C=C2\SC(=O)N(CC(=O)O)C2=O)cc1 [Compound 20, (Z)-2-(5-(4-Acetamidobenzylidene)-2,4-dioxothiazolidin-3-yl)acetic Acid]"
5,108,"COc1cccc(/C=C2\SC(=O)N(CC(=O)O)C2=O)c1OC [Compound 22, 2-(5-(2,3-Dimethoxybenzylidene)-2,4-dioxothiazolidin-3-yl) acetic Acid]"
6,80.1,"O=C(O)CN1C(=O)S/C(=C\c2ccccc2)C1=O [Compound 2, (Z)-2-(5-Benzylidene-2,4-dioxothiazolidin-3-yl)acetic Acid]"
7,103,"O=C(O)CN1C(=O)S/C(=C\c2ccc(O)cc2)C1=O [Compound 12, (Z)-2-(5-(4-Hydroxybenzylidene)-2,4-dioxothiazolidin-3-yl)acetic Acid]"
8,80.4,"O=C(O)CN1C(=O)S/C(=C\c2ccccn2)C1=O [Compound 34, (Z)-2-(2,4-Dioxo-5-(pyridin-2-ylmethylene)thiazolidin-3-yl)acetic Acid]"
9,90.2,"O=C(O)CN1C(=O)S/C(=C\c2ccncc2)C1=O [Compound 36, (Z)-2-(2,4-Dioxo-5-(pyridin-4-ylmethylene)thiazolidin-3-yl)acetic Acid]"
10,71.4,O=C(O)CN1C(=O)S/C(=C\c2ccc(OCc3ccccc3)cc2)C1=O [Compound 41]
11,> 250,COc1ccc(CC2SC(=O)N(CC(=O)O)C2=O)cc1 (stereo not drawn) [Compound 52]
12,122,"O=C(O)CN1C(=O)S/C(=C\c2ccc(C(F)(F)F)cc2)C1=O [Compound 29, (Z)-2-(2,4-Dioxo-5-(4-(trifluoromethyl)benzylidene)thiazolidin-3-yl)acetic Acid]"
13,81.8,"O=C(O)CN1C(=O)S/C(=C\c2ccsc2)C1=O [Compound 31, (Z)-2-(2,4-Dioxo-5-(thiophen-3-ylmethylene)thiazolidin-3-yl)acetic Acid]"
14,76.1,"O=C(O)CN1C(=O)S/C(=C\c2ccc3ccccc3c2)C1=O [Compound 39, (Z)-2-(5-(Naphthalen-2-ylmethylene)-2,4-dioxothiazolidin-3-yl)acetic Acid]"
15,84.3,"O=C(O)CN1C(=O)S/C(=C\c2ccc(Cl)cc2)C1=O [Compound 8, (Z)-2-(5-(4-Chlorobenzylidene)-2,4-dioxothiazolidin-3-yl)acetic Acid]"
16,> 250,"COc1ccc(/C=C2\SC(=O)N(CCC(=O)O)C2=O)cc1 [Compound 50, (Z)-3-(5-(4-Methoxybenzylidene)-2,4-dioxothiazolidin-3-yl)propanoic Acid]"
17,173,"COc1ccc(/C=C2\SC(=O)N(CC(=O)O)C2=O)c(OC)c1 [Compound 17, (Z)-2-(5-(2,4-Dimethoxybenzylidene)-2,4-dioxothiazolidin-3-yl)acetic Acid]"
18,323,"COc1ccc(/C=C2\NC(=S)NC2=O)cc1 [Compound 47, (Z)-5-(4-Methoxybenzylidene)-2-thioxoimidazolidin-4-one]"
